Where a name gives a salt, the structure may show the parent alone.
Legend:
SB.mhdgc-1 [1] = assay: viability at highest tested concentration (MAXR) relative to DMSO; higher = less cytotoxic; details: SB.mhdgc-1 (hereditary c.1380delA CDH1 gastric cancer)
Method in brief: (§1)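 Gastric cancer cells derived from hereditary or sporadic patients were treated for 48 h with compound at 11 threefold dilutions, with the top concentration recorded per compound. Viability was then read by CellTiter-Glo luminescence. Data are viability normalised to DMSO, at the highest concentration or as trapezoidal area under the curve.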

SB.msgc-1 [2] = assay: as above; details: SB.msgc-1 (sporadic gastric cancer)
Method in brief: as §1

SB.mhdgc-1 [3] = assay: area under the dose-response curve of % viability (trapezoidal, 11 doses) (% viability x log10 concentration); higher = less cytotoxic; details: SB.mhdgc-1 (hereditary c.1380delA CDH1 gastric cancer)
Method in brief: as §1

SB.msgc-1 [4] = assay: as above; details: SB.msgc-1 (sporadic gastric cancer)
Method in brief: as §1

Row | SMILES | viability (SB.mhdgc-1 [1]) | viability (SB.msgc-1 [2]) | area under the dose-response curve (SB.mhdgc-1 [3]) | area under the dose-response curve (SB.msgc-1 [4])
1 | CC(C)(O)[C@H]1CC[C@@](C)([C@H]2[C@@H](O)C[C@@]3(C)[C@@H]4C[C@H](O[C@@H]5O[C@H](CO)[C@@H](O)[C@H](O)[C@H]5O)[C@H]5C(C)(C)[C@@H](O[C@@H]6OC[C@@H](O)[C@H](O)[C@H]6O)CC[C@@]56C[C@@]46CC[C@]23C)O1 [Astragaloside A] (top concentration 46.0829 µM) | 86.5% | 87.9% | 558 | 559
2 | CN(c1nccc(=O)[nH]1)C1CCN(c2nc3ccccc3n2Cc2ccc(F)cc2)CC1 [Mizolastine] (top concentration 46.0829 µM) | 64.6% | 31.2% | 519 | 467
3 | CC(=O)Nc1ccc(O)cc1 [Acetaminophen] (top concentration 46.0829 µM) | 98.4% | 105% | 492 | 578
4 | CC[C@@H](C(N)=O)N1CCCC1=O [Levetiracetam] (top concentration 46.0829 µM) | 83.4% | 91.5% | 545 | 584
5 | CCC(C)(C)c1ccc(CC(C)CN2C[C@@H](C)O[C@@H](C)C2)cc1 (some centres undefined) [Amorolfine hydrochloride] (top concentration 46.0829 µM) | 24.3% | 71.4% | 378 | 467
6 | C\C1=C(\C=C(\C#N)C(=O)N1)C2=CC=NC=C2 [Milrinone] (top concentration 46.0829 µM) | 11.8% | 44.2% | 544 | 475
7 | O=C(Nc1cccc(Br)c1)c1cccc([S+](=O)([O-])N2CCCCCC2)c1 [Ak-7] (top concentration 46.0829 µM) | 53.6% | 38.5% | 503 | 463
8 | N#CC1(c2cccc(C(=O)Nc3cc(Oc4ccc5nc(NC(=O)C6CC6)sc5n4)ccc3F)c2Cl)CC1 [Takeda-6d] (top concentration 46.0829 µM) | 68.7% | 62.4% | 496 | 434
9 | Cc1onc(-c2ccccc2Cl)c1C(=O)N[C@@H]1C(=O)N2[C@@H]1SC(C)(C)[C@@H]2C(=O)[O-] [Sodium cloxacillin] (top concentration 46.0829 µM) | 97.4% | 121% | 513 | 606
10 | CSCC[C@@H](NC(=O)[C@@H](Cc1ccccc1)NC(=O)CNC(=O)CNC(=O)[C@@H](N)Cc1ccc(O)cc1)C(=O)O [Metenkephalin] (top concentration 46.0829 µM) | 140% | 120% | 556 | 558
11 | Cc1c(N)nc([C@H](CC(N)=O)NC[C@@H](N)C(N)=O)nc1C(=O)N[C@H](C(=O)N[C@@H](C)[C@H](O)[C@@H](C)C(=O)N[C@@H](C(=O)NCCc1nc(-c2nc(C(=O)NCCC[S+](C)C)cs2)cs1)[C@@H](C)O)C(O[C@H]1O[C@H](CO)[C@H](O)[C@@H](O)[C@H]1O[C@H]1O[C@H](CO)[C@@H](O)[C@H](OC(N)=O)[C@@H]1O)c1c[nH]cn1 (some centres undefined) [Bleomycin sulfate] (top concentration 46.0829 µM) | 49.9% | 55.3% | 451 | 425
12 | CC(C)(OCc1nn(Cc2ccccc2)c2ccccc12)C(=O)O [Bindarit] (top concentration 46.0829 µM) | 72.5% | 23.8% | 530 | 310
13 | NC/1=N/C(=O)N(/C=C1F)[C@H]2CS[C@H](CO)O2 [Emtricitabine] (top concentration 46.0829 µM) | 112% | 120% | 534 | 520
14 | CCOC(=O)C/1=C(O)/C(=O)N(CC2=CC=CC=C2)C1 [EBPC] (top concentration 46.0829 µM) | 93.3% | 104% | 534 | 581
15 | CCC1=C2CN3C(=O)\C4=C(/C=C3/C2=NC5=CC=C(O)C=C15)[C@@](O)(CC)C(=O)OC4 [SN-38] (top concentration 46.0829 µM) | 57.1% | 25% | 227 | 265
16 | COC(=O)[C@H](Cc1ccccc1)NC(=O)[C@@H](N)CC(=O)O [Aspartame] (top concentration 46.0829 µM) | 34% | 98.2% | 543 | 579
17 | O=C(CN1C(=O)C2(CCCC2)NC[C@H]1c1cc(F)cc(F)c1)Nc1ccc2c(c1)C[C@@]1(C2)C(=O)Nc2ncccc21 [MK-3207] (top concentration 46.0829 µM) | 123% | 118% | 555 | 573
18 | O=C(Nc1ncc(SCCN2CCCC2)s1)[C@]1(c2ccc([S+](=O)([O-])C3CC3)cc2)C[C@H]1C1CCCCC1 (top concentration 46.0829 µM) | 2.7% | 3.97% | 511 | 510
19 | CCOC1OC(=O)C[C@@H]1NC(=O)[C@@H]1CCCN1C(=O)[C@@H](NC(=O)c1ccc(N)c(Cl)c1)C(C)(C)C (some centres undefined) [VX-765] (top concentration 46.0829 µM) | 94.2% | 117% | 531 | 580
20 | O=C(Nc1ccc(F)c(C(F)(F)F)c1)Nc1nnc(-c2ccncc2)s1 (top concentration 46.0829 µM) | 84.2% | 60.9% | 522 | 473
21 | CC(=O)O[C@H]1C(=O)[C@]2(C)[C@@H](O)C[C@H]3OC[C@@]3(OC(C)=O)C2[C@H](OC(=O)C4=CC=CC=C4)[C@]5(O)C[C@H](OC(=O)[C@H](O)[C@@H](NC(=O)C6=CC=CC=C6)C7=CC=CC=C7)\C(=C1/C5(C)C)C (some centres undefined) [Paclitaxel] (top concentration 46.0829 µM) | 44.1% | 38.5% | 297 | 246

Row | SMILES | viability (SB.mhdgc-1 [1]) | viability (SB.msgc-1 [2]) | area under the dose-response curve (SB.mhdgc-1 [3]) | area under the dose-response curve (SB.msgc-1 [4])
22 | CC1(C)O[C@H]2CC(=O)OC[C@]23[C@H]2CC[C@@]4(C)[C@H](c5ccoc5)OC(=O)[C@H]5O[C@]54[C@]2(C)C(=O)C[C@@H]13 [Limonin] (top concentration 46.0829 µM) | 120% | 128% | 598 | 570
23 | COC(=O)C1C2CC3c4[nH]c5cc(OC)ccc5c4CCN3CC2CC(OC(=O)c2cc(OC)c(OC)c(OC)c2)C1OC (centres undefined) [Reserpine] (top concentration 46.0829 µM) | 5.27% | 45.2% | 418 | 525
24 | C[C@@H]1C[C@H]2[C@@H]3\C=C(C)/C4=C/C5=C(C[C@]4(C)[C@H]3[C@@H](O)C[C@]2(C)[C@@]1(O)C(=O)CO)C=N[N]5C6=CC=CC=C6 [Deacetyl cortivazol] (top concentration 46.0829 µM) | 20.9% | 27.5% | 391 | 508
25 | C[C@H](CCC(=O)O)[C@H]1CC[C@H]2[C@@H]3[C@@H](O)C[C@@H]4C[C@H](O)CC[C@]4(C)[C@H]3CC[C@]12C [Ursodiol] (top concentration 46.0829 µM) | 121% | 84.4% | 491 | 541
26 | CCCCCN(CCC12CC3CC(CC(C3)C1)C2)C(=O)NCCCc1ccncc1 [DE-096] (top concentration 46.0829 µM) | 2.93% | 23.2% | 536 | 476
27 | COc1ccc2[nH]cc(CCNC(C)=O)c2c1 [Melatonin] (top concentration 46.0829 µM) | 48.2% | 34.7% | 481 | 409
28 | CCCCCNC(=O)N1CCC(CN(Cc2ccc(Cl)cc2)Cc2ccc([N+](=O)[O-])s2)C1 (centres undefined) [SR9011] (top concentration 46.0829 µM) | 16.7% | 39% | 518 | 486
29 | COc1nc(C)cnc1N[S+](=O)([O-])c1cccnc1-c1ccc(-c2nnco2)cc1 [Zibotentan] (top concentration 46.0829 µM) | 99.7% | 107% | 547 | 589
30 | CC1(CN2CCC(n3c(=O)[nH]c4ccccc43)CC2)OCc2ccccc2-n2cccc21 (centres undefined) [Zaldaride maleate] (top concentration 46.0829 µM) | 5.92% | 20.3% | 510 | 325
31 | CC[C@@]1(O)C[C@H](O[C@H]2C[C@H](N(C)C)[C@H](O[C@H]3C[C@H](O)[C@H](O[C@H]4CCC(=O)[C@H](C)O4)[C@H](C)O3)[C@H](C)O2)c2c(cc3c(c2O)C(=O)c2c(O)cccc2C3=O)[C@H]1C(=O)OC [Aclarubicin] (top concentration 46.0829 µM) | 34.7% | 33.3% | 362 | 373
32 | Cc1c[nH]c(/C=C2\C(=O)Nc3ccccc32)c1CCC(=O)O [SU-5402] (top concentration 46.0829 µM) | 47.1% | 58.5% | 546 | 482
33 | CN(C)CCOc1cc(-c2cn[nH]c2)ccc1NC(=O)C1COc2ccccc2O1 (centres undefined) [SR-3677] (top concentration 46.0829 µM) | 65.5% | 112% | 411 | 551
34 | COC1=CC=C(C(=C1)OC(C)C)C/2=N/[C@@H]([C@@H](N2C(=O)N3CCNC(=O)C3)C4=CC=C(Cl)C=C4)C5=CC=C(Cl)C=C5 [Nutlin-3] (top concentration 46.0829 µM) | 7.3% | 37.8% | 386 | 478
35 | CCN(CC)CC#CCOC(=O)C(O)(c1ccccc1)C1CCCCC1 (centres undefined) [Oxybutynin chloride] (top concentration 46.0829 µM) | 95.3% | 88.2% | 551 | 515
36 | C/C(O)=C(\C#N)C(=O)Nc1ccc(C(F)(F)F)cc1 [Teriflunomide] (top concentration 46.0829 µM) | 13.5% | 20.3% | 515 | 464
37 | COc1cc(C(=O)NS(=O)(=O)c2ccccc2C)ccc1Cc1cn(C)c2ccc(NC(=O)OC3CCCC3)cc12 [Zafirlukast] (top concentration 46.0829 µM) | 3.38% | 1.71% | 420 | 281
38 | C=C[C@H]1CN2CCC1C[C@H]2[C@H](O)c1ccnc2ccccc12 (some centres undefined) [Cinchonidine] (top concentration 46.0829 µM) | 7.6% | 30.9% | 470 | 457
39 | COc1ccc(F)c(F)c1C(=O)c1cnc(NC2CCN([S+](C)(=O)[O-])CC2)nc1N [R-547] (top concentration 46.0829 µM) | 50.3% | 50.5% | 471 | 422
40 | CC(C)[C@@H](N(CCCN)C(=O)C1=CC=C(C)C=C1)C/2=C(\CC3=CC=CC=C3)C(=O)C4=C(O2)C=C(Cl)C=C4 (top concentration 46.0829 µM) | 3.56% | 18% | 290 | 196
41 | CCN1\C=C(C(O)=O)/C(=O)C2=C1C=C(N3CCN(C)CC3)C(=C2)F [Pefloxacin] (top concentration 46.0829 µM) | 96.3% | 117% | 545 | 617

— the supplement of paper PMC5412046
